# Measurements: patent publication US7498349B2, “Biaryl compounds having anti-infective activity” (Genesoft Pharmaceuticals, Inc., priority 2002, dated 2009)
# What was measured:
# B. cereus ATCC 11778 = assay: MIC, NCCLS broth microdilution assay; assay type: cell-based, Bacillus cereus; conditions: B. cereus ATCC 11778
# C. albicans ATCC 38247 = assay: MIC, antifungal assay; assay type: cell-based, Candida albicans; conditions: C. albicans ATCC 38247
# From the text: In vitro biological activity data were collected for a variety of microorganisms, including Bacillus cereus (ATCC 11778), Staphylococcus aureus (ATCC 33591; ATCC 27660, a methicillin resistant strain (MRSA); ATCC 13709, a methicillin sensitive strain (MSSA)), Escherichia coli (ATCC 25922), Enterococcus faecalis (ATCC 29212), Streptococcus pneumoniae (ATCC 49619; ATCC 51422, a penicillin resistant strain (PRSP)), Enterococcus faecium (ATCC 51559, a vancomycin resistant strain (VRE)), and Staphylococcus epidermidis (ATCC 12228). Additionally, antifungal activity data were collected for Candida albicans (ATCC 38247).
# The minimal inhibition concentration (MIC) of these compounds was determined using the National Committee for Clinical Laboratory Standards (NCCLS) broth microdilution assay in microtiter plates, as set forth in: (1) the guidelines of the National Committee for Clinical Laboratory Standards (NCCLS) Document M7-A4 (NCCLS, 1997); (2) the guidelines of the National Committee for Clinical Laboratory Standards (NCCLS) Document M11-A4 (NCCLS, 1997); and (3) the guidelines and reference method of the National Committee for Clinical Laboratory Standards (NCCLS) Document M27 -T (NCCLS, 1995). For antifungal assays, the method recommended in Murray, PR., 1995 Manual of Clinical Microbiology (ASM Press, Washington, D.C.), was employed.
# E. faecalis ATCC 29212 = assay: MIC, NCCLS broth microdilution assay; assay type: cell-based, Enterococcus faecalis; conditions: E. faecalis ATCC 29212
# S. aureus ATCC 13709 = assay: MIC, NCCLS broth microdilution assay; assay type: cell-based, Staphylococcus aureus; conditions: S. aureus ATCC 13709, methicillin sensitive strain (MSSA)
# From the text: In vitro biological activity data were collected for a variety of microorganisms, including Bacillus cereus (ATCC 11778), Staphylococcus aureus (ATCC 33591; ATCC 27660, a methicillin resistant strain (MRSA); ATCC 13709, a methicillin sensitive strain (MSSA)), Escherichia coli (ATCC 25922), Enterococcus faecalis (ATCC 29212), Streptococcus pneumoniae (ATCC 49619; ATCC 51422, a penicillin resistant strain (PRSP)), Enterococcus faecium (ATCC 51559, a vancomycin resistant strain (VRE)), and Staphylococcus epidermidis (ATCC 12228).
# The minimal inhibition concentration (MIC) of these compounds was determined using the National Committee for Clinical Laboratory Standards (NCCLS) broth microdilution assay in microtiter plates, as set forth in: (1) the guidelines of the National Committee for Clinical Laboratory Standards (NCCLS) Document M7-A4 (NCCLS, 1997); (2) the guidelines of the National Committee for Clinical Laboratory Standards (NCCLS) Document M11-A4 (NCCLS, 1997); and (3) the guidelines and reference method of the National Committee for Clinical Laboratory Standards (NCCLS) Document M27 -T (NCCLS, 1995).
# S. aureus ATCC 27660 = assay: MIC, NCCLS broth microdilution assay; assay type: cell-based, Staphylococcus aureus; conditions: S. aureus ATCC 27660, methicillin resistant strain (MRSA)
# S. aureus ATCC 33591 = assay: MIC, NCCLS broth microdilution assay; assay type: cell-based, Staphylococcus aureus; conditions: S. aureus ATCC 33591
# S. pneumoniae ATCC 49619 = assay: MIC, NCCLS broth microdilution assay; assay type: cell-based, Streptococcus pneumoniae; conditions: S. pneumoniae ATCC 49619
# E. coli ATCC 25922 = assay: MIC, NCCLS broth microdilution assay; assay type: cell-based, Escherichia coli; conditions: E. coli ATCC 25922
smiles,measurement,setting,value
CN(C)CCCNc1ncccc1C(=O)Nc1ccc(-c2cc3ccccc3s2)nc1 [Compound A-74],Minimum Inhibitory Concentration (MIC),B. cereus ATCC 11778,+ (12 ≦ MIC ≦ 32)
same,Minimum Inhibitory Concentration (MIC),C. albicans ATCC 38247,+ (12 ≦ MIC ≦ 32)
same,Minimum Inhibitory Concentration (MIC),E. faecalis ATCC 29212,++ (4 < MIC < 12)
same,Minimum Inhibitory Concentration (MIC),S. aureus ATCC 13709,++ (4 < MIC < 12)
same,Minimum Inhibitory Concentration (MIC),S. aureus ATCC 27660,+ (12 ≦ MIC ≦ 32)
same,Minimum Inhibitory Concentration (MIC),S. aureus ATCC 33591,++ (4 < MIC < 12)
same,Minimum Inhibitory Concentration (MIC),S. pneumoniae ATCC 49619,+ (12 ≦ MIC ≦ 32)
same,Minimum Inhibitory Concentration (MIC),E. coli ATCC 25922,>32 µg/mL
O=C(Nc1ccc(-c2cc3ccccc3o2)nc1)c1nsc(NCCN2CCNCC2)c1Cl [Compound A-35],Minimum Inhibitory Concentration (MIC),B. cereus ATCC 11778,>32 µg/mL
same,Minimum Inhibitory Concentration (MIC),C. albicans ATCC 38247,+++ (MIC ≦ 4)
same,Minimum Inhibitory Concentration (MIC),E. faecalis ATCC 29212,+ (12 ≦ MIC ≦ 32)
same,Minimum Inhibitory Concentration (MIC),S. aureus ATCC 13709,+ (12 ≦ MIC ≦ 32)
same,Minimum Inhibitory Concentration (MIC),S. aureus ATCC 27660,+ (12 ≦ MIC ≦ 32)
same,Minimum Inhibitory Concentration (MIC),S. aureus ATCC 33591,>32 µg/mL
same,Minimum Inhibitory Concentration (MIC),S. pneumoniae ATCC 49619,>32 µg/mL
same,Minimum Inhibitory Concentration (MIC),E. coli ATCC 25922,>32 µg/mL
Cc1cc(NC(=O)c2cccnc2NCCN2CCCCC2)ccc1-c1cc2ccccc2o1 [Compound A-27],Minimum Inhibitory Concentration (MIC),B. cereus ATCC 11778,++ (4 < MIC < 12)
same,Minimum Inhibitory Concentration (MIC),C. albicans ATCC 38247,++ (4 < MIC < 12)
same,Minimum Inhibitory Concentration (MIC),E. faecalis ATCC 29212,+++ (MIC ≦ 4)
same,Minimum Inhibitory Concentration (MIC),S. aureus ATCC 13709,+++ (MIC ≦ 4)
same,Minimum Inhibitory Concentration (MIC),S. aureus ATCC 27660,+++ (MIC ≦ 4)
same,Minimum Inhibitory Concentration (MIC),S. aureus ATCC 33591,+++ (MIC ≦ 4)
same,Minimum Inhibitory Concentration (MIC),S. pneumoniae ATCC 49619,+ (12 ≦ MIC ≦ 32)
same,Minimum Inhibitory Concentration (MIC),E. coli ATCC 25922,>32 µg/mL
CN(C)CCCNc1snc(C(=O)Nc2ccc(-c3cc4ccccc4o3)nc2)c1Cl [Compound A-36],Minimum Inhibitory Concentration (MIC),B. cereus ATCC 11778,++ (4 < MIC < 12)
same,Minimum Inhibitory Concentration (MIC),C. albicans ATCC 38247,++ (4 < MIC < 12)
same,Minimum Inhibitory Concentration (MIC),E. faecalis ATCC 29212,++ (4 < MIC < 12)
same,Minimum Inhibitory Concentration (MIC),S. aureus ATCC 13709,+++ (MIC ≦ 4)
same,Minimum Inhibitory Concentration (MIC),S. aureus ATCC 27660,+ (12 ≦ MIC ≦ 32)
same,Minimum Inhibitory Concentration (MIC),S. aureus ATCC 33591,++ (4 < MIC < 12)
same,Minimum Inhibitory Concentration (MIC),S. pneumoniae ATCC 49619,+ (12 ≦ MIC ≦ 32)
same,Minimum Inhibitory Concentration (MIC),E. coli ATCC 25922,>32 µg/mL
CN(CCCN)CCCNc1ncccc1C(=O)Nc1ccc(-c2cc3ccccc3s2)nc1 [Compound A-76],Minimum Inhibitory Concentration (MIC),B. cereus ATCC 11778,+ (12 ≦ MIC ≦ 32)
same,Minimum Inhibitory Concentration (MIC),C. albicans ATCC 38247,+ (12 ≦ MIC ≦ 32)
same,Minimum Inhibitory Concentration (MIC),E. faecalis ATCC 29212,++ (4 < MIC < 12)
same,Minimum Inhibitory Concentration (MIC),S. aureus ATCC 13709,+++ (MIC ≦ 4)
same,Minimum Inhibitory Concentration (MIC),S. aureus ATCC 27660,+++ (MIC ≦ 4)
same,Minimum Inhibitory Concentration (MIC),S. aureus ATCC 33591,++ (4 < MIC < 12)
same,Minimum Inhibitory Concentration (MIC),S. pneumoniae ATCC 49619,+ (12 ≦ MIC ≦ 32)
same,Minimum Inhibitory Concentration (MIC),E. coli ATCC 25922,+ (12 ≦ MIC ≦ 32)
NCCCCNc1snc(C(=O)Nc2ccc(-c3cc4ccccc4o3)nc2)c1Cl [Compound A-37],Minimum Inhibitory Concentration (MIC),B. cereus ATCC 11778,>32 µg/mL
same,Minimum Inhibitory Concentration (MIC),C. albicans ATCC 38247,+ (12 ≦ MIC ≦ 32)
same,Minimum Inhibitory Concentration (MIC),E. faecalis ATCC 29212,++ (4 < MIC < 12)
same,Minimum Inhibitory Concentration (MIC),S. aureus ATCC 13709,+++ (MIC ≦ 4)
same,Minimum Inhibitory Concentration (MIC),S. aureus ATCC 27660,+++ (MIC ≦ 4)
same,Minimum Inhibitory Concentration (MIC),S. aureus ATCC 33591,++ (4 < MIC < 12)
same,Minimum Inhibitory Concentration (MIC),S. pneumoniae ATCC 49619,>32 µg/mL
same,Minimum Inhibitory Concentration (MIC),E. coli ATCC 25922,>32 µg/mL
O=C(Nc1ccc(-c2cc3ccccc3s2)nc1)c1nsc(NCCN2CCNCC2)c1Cl [Compound A-70],Minimum Inhibitory Concentration (MIC),B. cereus ATCC 11778,>32 µg/mL
same,Minimum Inhibitory Concentration (MIC),C. albicans ATCC 38247,+++ (MIC ≦ 4)
same,Minimum Inhibitory Concentration (MIC),E. faecalis ATCC 29212,+++ (MIC ≦ 4)
same,Minimum Inhibitory Concentration (MIC),S. aureus ATCC 13709,+++ (MIC ≦ 4)
same,Minimum Inhibitory Concentration (MIC),S. aureus ATCC 27660,+++ (MIC ≦ 4)
same,Minimum Inhibitory Concentration (MIC),S. aureus ATCC 33591,+++ (MIC ≦ 4)
same,Minimum Inhibitory Concentration (MIC),S. pneumoniae ATCC 49619,>32 µg/mL
same,Minimum Inhibitory Concentration (MIC),E. coli ATCC 25922,>32 µg/mL
O=C(Nc1ccc(-c2cc3ccccc3o2)cc1)c1ccc(Cl)cc1NCCN1CCCC1 [Compound A-25],Minimum Inhibitory Concentration (MIC),B. cereus ATCC 11778,>32 µg/mL
same,Minimum Inhibitory Concentration (MIC),C. albicans ATCC 38247,>32 µg/mL
same,Minimum Inhibitory Concentration (MIC),E. faecalis ATCC 29212,+ (12 ≦ MIC ≦ 32)
same,Minimum Inhibitory Concentration (MIC),S. aureus ATCC 13709,+ (12 ≦ MIC ≦ 32)
same,Minimum Inhibitory Concentration (MIC),S. aureus ATCC 27660,+ (12 ≦ MIC ≦ 32)
same,Minimum Inhibitory Concentration (MIC),S. aureus ATCC 33591,+ (12 ≦ MIC ≦ 32)
same,Minimum Inhibitory Concentration (MIC),S. pneumoniae ATCC 49619,>32 µg/mL
same,Minimum Inhibitory Concentration (MIC),E. coli ATCC 25922,>32 µg/mL
O=C(Nc1ccc(-c2cc3ccccc3s2)cc1)c1cccnc1NCCN1CCNCC1 [Compound A-48],Minimum Inhibitory Concentration (MIC),B. cereus ATCC 11778,+ (12 ≦ MIC ≦ 32)
same,Minimum Inhibitory Concentration (MIC),C. albicans ATCC 38247,>32 µg/mL
same,Minimum Inhibitory Concentration (MIC),E. faecalis ATCC 29212,>32 µg/mL
same,Minimum Inhibitory Concentration (MIC),S. aureus ATCC 13709,+++ (MIC ≦ 4)
same,Minimum Inhibitory Concentration (MIC),S. aureus ATCC 27660,+++ (MIC ≦ 4)
same,Minimum Inhibitory Concentration (MIC),S. aureus ATCC 33591,+++ (MIC ≦ 4)
same,Minimum Inhibitory Concentration (MIC),S. pneumoniae ATCC 49619,>32 µg/mL
same,Minimum Inhibitory Concentration (MIC),E. coli ATCC 25922,>32 µg/mL
CN(C)CCCNc1snc(C(=O)Nc2ccc(-c3cc4ccccc4s3)nc2)c1Cl [Compound A-67],Minimum Inhibitory Concentration (MIC),B. cereus ATCC 11778,+++ (MIC ≦ 4)
same,Minimum Inhibitory Concentration (MIC),C. albicans ATCC 38247,+++ (MIC ≦ 4)
same,Minimum Inhibitory Concentration (MIC),E. faecalis ATCC 29212,+++ (MIC ≦ 4)
same,Minimum Inhibitory Concentration (MIC),S. aureus ATCC 13709,+++ (MIC ≦ 4)
same,Minimum Inhibitory Concentration (MIC),S. aureus ATCC 27660,+++ (MIC ≦ 4)
same,Minimum Inhibitory Concentration (MIC),S. aureus ATCC 33591,+++ (MIC ≦ 4)
same,Minimum Inhibitory Concentration (MIC),S. pneumoniae ATCC 49619,>32 µg/mL
same,Minimum Inhibitory Concentration (MIC),E. coli ATCC 25922,>32 µg/mL
O=C(Nc1ccc(-c2cc3ccccc3[nH]2)cc1)c1nsc(NCCN2CCCC2)c1Cl [Compound A-58],Minimum Inhibitory Concentration (MIC),B. cereus ATCC 11778,+ (12 ≦ MIC ≦ 32)
same,Minimum Inhibitory Concentration (MIC),C. albicans ATCC 38247,+++ (MIC ≦ 4)
same,Minimum Inhibitory Concentration (MIC),E. faecalis ATCC 29212,++ (4 < MIC < 12)
same,Minimum Inhibitory Concentration (MIC),S. aureus ATCC 13709,+ (12 ≦ MIC ≦ 32)
same,Minimum Inhibitory Concentration (MIC),S. aureus ATCC 27660,++ (4 < MIC < 12)
same,Minimum Inhibitory Concentration (MIC),S. aureus ATCC 33591,++ (4 < MIC < 12)
same,Minimum Inhibitory Concentration (MIC),S. pneumoniae ATCC 49619,+ (12 ≦ MIC ≦ 32)
same,Minimum Inhibitory Concentration (MIC),E. coli ATCC 25922,>32 µg/mL
NCCOCCOCCNc1cc(Cl)ccc1C(=O)Nc1ccc(-c2cc3ccccc3o2)cc1 [Compound A-24],Minimum Inhibitory Concentration (MIC),B. cereus ATCC 11778,>32 µg/mL
same,Minimum Inhibitory Concentration (MIC),C. albicans ATCC 38247,>32 µg/mL
same,Minimum Inhibitory Concentration (MIC),E. faecalis ATCC 29212,+ (12 ≦ MIC ≦ 32)
same,Minimum Inhibitory Concentration (MIC),S. aureus ATCC 13709,+ (12 ≦ MIC ≦ 32)
same,Minimum Inhibitory Concentration (MIC),S. aureus ATCC 27660,+ (12 ≦ MIC ≦ 32)
same,Minimum Inhibitory Concentration (MIC),S. aureus ATCC 33591,+ (12 ≦ MIC ≦ 32)
same,Minimum Inhibitory Concentration (MIC),S. pneumoniae ATCC 49619,>32 µg/mL
same,Minimum Inhibitory Concentration (MIC),E. coli ATCC 25922,>32 µg/mL
CN(C)CCCNc1snc(C(=O)Nc2ccc(-c3cc4ccccc4[nH]3)cc2)c1Cl [Compound A-57],Minimum Inhibitory Concentration (MIC),B. cereus ATCC 11778,+ (12 ≦ MIC ≦ 32)
same,Minimum Inhibitory Concentration (MIC),C. albicans ATCC 38247,+++ (MIC ≦ 4)
same,Minimum Inhibitory Concentration (MIC),E. faecalis ATCC 29212,++ (4 < MIC < 12)
same,Minimum Inhibitory Concentration (MIC),S. aureus ATCC 13709,++ (4 < MIC < 12)
same,Minimum Inhibitory Concentration (MIC),S. aureus ATCC 27660,++ (4 < MIC < 12)
same,Minimum Inhibitory Concentration (MIC),S. aureus ATCC 33591,+ (12 ≦ MIC ≦ 32)
same,Minimum Inhibitory Concentration (MIC),S. pneumoniae ATCC 49619,>32 µg/mL
same,Minimum Inhibitory Concentration (MIC),E. coli ATCC 25922,>32 µg/mL
Cc1ccc2oc(-c3ccc(NC(=O)c4nsc(NCCCN(C)C)c4Cl)cc3)cc2n1 [Compound A-55],Minimum Inhibitory Concentration (MIC),B. cereus ATCC 11778,+ (12 ≦ MIC ≦ 32)
same,Minimum Inhibitory Concentration (MIC),C. albicans ATCC 38247,++ (4 < MIC < 12)
same,Minimum Inhibitory Concentration (MIC),E. faecalis ATCC 29212,+ (12 ≦ MIC ≦ 32)
same,Minimum Inhibitory Concentration (MIC),S. aureus ATCC 13709,++ (4 < MIC < 12)
same,Minimum Inhibitory Concentration (MIC),S. aureus ATCC 27660,++ (4 < MIC < 12)
same,Minimum Inhibitory Concentration (MIC),S. aureus ATCC 33591,+ (12 ≦ MIC ≦ 32)
same,Minimum Inhibitory Concentration (MIC),S. pneumoniae ATCC 49619,+ (12 ≦ MIC ≦ 32)
same,Minimum Inhibitory Concentration (MIC),E. coli ATCC 25922,>32 µg/mL
